According to patent US5391540A, “Substituted pyridine compounds” (Rohm and Haas Company, priority 1993, dated 1995):

How the values were obtained:
Format in all cases: in vivo
[1] = system: Dobr; assay: plant injury after spraying emerged plants (Table D)
Excerpt: Topsoil (silt loam) is sieved through a screen having 1.27 cm openings. In some of the tests the soil was mixed with fertilizer (1225 g/cu. m of 12/5/9 containing isobutylidene diurea), while in other tests the fertilizer was omitted. This mixture is steam sterilized and then placed in aluminum pans 6.985 cm deep having ten holes in the bottom each 0.635 cm in diameter. The soil mixture is compacted to a depth of 1.27 cm. from the top of the pan. A predetermined number of seeds of each of several dicotyledonous and monocotyledonous annual plant species and/or vegetative propagules for the perennial plant species are placed on the soil and pressed into the soil surface. The seeds and/or vegetative propagules are covered with 1.27 cm of a mixture of 50% topsoil and 50% of a mixture of Canadian sphagnum peat moss, vermiculite and a wetting agent. The pans are then placed on a capillary mat on a greenhouse bench and subirrigated as needed. After the plants reach the desired stage (9 to 14 days, 1 to 3 true leaf stage), each pan (except the control pans) is removed to a spraying chamber and sprayed by means of an atomizer, operating at a spray pressure of 170.3 kPa ([…]) at the application rates noted in Table D. In the spray solution is an amount of an emulsifying agent mixture (35% butylamine salt of dodecylbenzenesulfonic acid and 65% tall oil condensed with ethylene oxide in the ratio of 11 mols of ethylene oxide/mol of tall oil) to give a spray solution or suspension. The spray solution or suspension contains a sufficient amount of the candidate chemical in order to give application rates of the active ingredient corresponding to those shown in Table D below while applying a total amount of solution or suspension equivalent to 1870 L/Ha (200 gallons/acre). The pans are returned to the greenhouse and watered as before and the injury to the plants as compared to the control pans is observed at approximately 10-14 days (usually 11 days).
(§1) In the following Table D the legends used to identify the plant species are the same as those used in the preceding Table B.

[2] = system: Prmi; assay: as above; set-up: scale not given here
Excerpt: (§2) Topsoil (silt loam) is sieved through a screen having 1.27 cm openings. […] This mixture is steam sterilized and then placed in aluminum pans 6.985 cm deep having ten holes in the bottom each 0.635 cm in diameter. The soil mixture is compacted to a depth of 1.27 cm. from the top of the pan. A predetermined number of seeds of each of several dicotyledonous and monocotyledonous annual plant species and/or vegetative propagules for the perennial plant species are placed on the soil and pressed into the soil surface. The seeds and/or vegetative propagules are covered with 1.27 cm of a mixture of 50% topsoil and 50% of a mixture of Canadian sphagnum peat moss, vermiculite and a wetting agent. The pans are then placed on a capillary mat on a greenhouse bench and subirrigated as needed.
as §1

[3] = system: Whez; assay: as above; set-up: scale not given here
Excerpt: as §2, §1

[4] = system: Corn; assay: as above; set-up: scale not given here
Excerpt: as §2, §1

[5] = system: Cobu; assay: as above; set-up: scale not given here
Excerpt: as §2, §1

[6] = system: Sobe; assay: as above; set-up: scale not given here
Excerpt: as §2, §1

[7] = system: Rice; assay: as above; set-up: scale not given here
Excerpt: as §2, §1

[8] = system: Bygr; assay: as above; set-up: scale not given here
Excerpt: as §2, §1

[9] = system: Lacg; assay: as above; set-up: scale not given here
Excerpt: as §2, §1

[10] = system: Mogl; assay: as above; set-up: scale not given here
Excerpt: as §2, §1

[11] = system: Grso; assay: as above; set-up: scale not given here
Excerpt: as §2, §1

[12] = system: Grft; assay: as above; set-up: scale not given here
Excerpt: as §2, §1

[13] = system: Morningglory; assay: Pre-emergent herbicidal activity (Table A); settings: Ipomoea, pre-emergence, Mogl, 11.2 kg/ha, 10-14 days, read-out: herbicidal rating (% inhibition)
Outline: (§3)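 Seeds or perennial propagules set on compacted topsoil, then covered with soil mixed with a known amount of test compound applied in acetone or water carrier. Ratings assigned on a scale based on percent inhibition of each species.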

[14] = system: Downy Brome; assay: Pre-emergent herbicidal activity (Table A); settings: Bromus tectorum, pre-emergence, Dobr, 11.2 kg/ha, 10-14 days, read-out: herbicidal rating (% inhibition)
Outline: as §3

[15] = system: Cocklebur; assay: Pre-emergent herbicidal activity (Table A); settings: Xanthium strumarium, pre-emergence, Cobu, 11.2 kg/ha, 10-14 days, read-out: herbicidal rating (% inhibition)
Outline: as §3

[16] = system: Yellow Nutsedge; assay: Pre-emergent herbicidal activity (Table A); settings: Cyperus, pre-emergence, Yens, 11.2 kg/ha, 10-14 days, read-out: herbicidal rating (% inhibition)
Outline: as §3

SMILES	plant injury rating, Dobr ([1]; 1.1210 kg/ha)	plant injury rating, Prmi ([2]; 1.1210 kg/ha)	plant injury rating, Prmi ([2]; 5.6050 kg/ha)	plant injury rating, Whez ([3]; 1.1210 kg/ha)	plant injury rating, Whez ([3]; 5.6050 kg/ha)	plant injury rating, Corn ([4]; 5.6050 kg/ha)	plant injury rating, Sobe ([6]; 1.1210 kg/ha)	plant injury rating, Rice ([7]; 1.1210 kg/ha)	plant injury rating, Rice ([7]; 5.6050 kg/ha)	plant injury rating, Bygr ([8]; 1.1210 kg/ha)	plant injury rating, Bygr ([8]; 5.6050 kg/ha)	plant injury rating, Lacg ([9]; 1.1210 kg/ha)	plant injury rating, Lacg ([9]; 5.6050 kg/ha)	plant injury rating, Mogl ([10]; 1.1210 kg/ha)	plant injury rating, Mogl ([10]; 5.6050 kg/ha)	plant injury rating, Grft ([12]; 1.1210 kg/ha)	inhibition at 11200 g/ha [13] [%]	inhibition at 11200 g/ha [14] [%]	inhibition at 11200 g/ha [15] [%]	inhibition at 11200 g/ha [16] [%]	further results
COC(=O)c1c(OC)nc(C(F)(F)F)c(C(=O)SC)c1C1CCC1 [Compound 137, 3-pyridinecarboxylic acid, 4-cyclobuty1-2-methoxy-5-[(methylthio)carbonyl]-6-(trifluoromethyl)-, methyl ester]	1	0	1	0	0	1	2	1	1	2	2	3	3	1	2	2	75 to 100	75 to 100	75 to 100	75 to 100	plant injury rating, Dobr ([1]; 0.2803 kg/ha): 0; plant injury rating, Dobr ([1]; 5.6050 kg/ha): 1; plant injury rating, Prmi ([2]; 0.2803 kg/ha): 0; plant injury rating, Whez ([3]; 0.2803 kg/ha): 0; plant injury rating, Corn ([4]; 0.2803 kg/ha): 0; plant injury rating, Corn ([4]; 1.1210 kg/ha): 0; plant injury rating, Cobu ([5]; 0.2803 kg/ha): 0; plant injury rating, Cobu ([5]; 1.1210 kg/ha): 1; plant injury rating, Cobu ([5]; 5.6050 kg/ha): 3; plant injury rating, Sobe ([6]; 0.2803 kg/ha): 0; plant injury rating, Sobe ([6]; 5.6050 kg/ha): 2; plant injury rating, Rice ([7]; 0.2803 kg/ha): 0; plant injury rating, Bygr ([8]; 0.2803 kg/ha): 1; plant injury rating, Lacg ([9]; 0.2803 kg/ha): 3; plant injury rating, Mogl ([10]; 0.2803 kg/ha): 1; plant injury rating, Grso ([11]; 0.2803 kg/ha): 0; plant injury rating, Grso ([11]; 1.1210 kg/ha): 0; plant injury rating, Grso ([11]; 5.6050 kg/ha): 2; plant injury rating, Grft ([12]; 0.2803 kg/ha): 2; plant injury rating, Grft ([12]; 5.6050 kg/ha): 2
COC(=O)c1c(OC)nc(C(F)(F)F)c(N=CSC)c1CC(C)C [Compound 77, 3-pyridinecarboxylic acid, 2-methoxy-4-(2-methylpropyl)-5-[[(methylthio)methylene]amino]-6-(trifluoromethyl)-, methyl ester]	0	0	0	0	0	2	1	0	0	0	2	2	3	1	2	0	75 to 100	75 to 100	50 to 74	75 to 100	plant injury rating, Dobr ([1]; 2.8025 kg/ha): 0; plant injury rating, Dobr ([1]; 11.2100 kg/ha): 0; plant injury rating, Prmi ([2]; 2.8025 kg/ha): 0; plant injury rating, Whez ([3]; 2.8025 kg/ha): 0; plant injury rating, Corn ([4]; 2.8025 kg/ha): 2; plant injury rating, Corn ([4]; 11.2100 kg/ha): 3; plant injury rating, Cobu ([5]; 2.8025 kg/ha): 1; plant injury rating, Cobu ([5]; 11.2100 kg/ha): 3; plant injury rating, Sobe ([6]; 2.8025 kg/ha): 1; plant injury rating, Rice ([7]; 2.8025 kg/ha): 0; plant injury rating, Rice ([7]; 11.2100 kg/ha): 0; plant injury rating, Bygr ([8]; 11.2100 kg/ha): 3; plant injury rating, Lacg ([9]; 2.8025 kg/ha): 3; plant injury rating, Lacg ([9]; 11.2100 kg/ha): 3; plant injury rating, Mogl ([10]; 2.8025 kg/ha): 2; plant injury rating, Mogl ([10]; 11.2100 kg/ha): 3; plant injury rating, Grso ([11]; 2.8025 kg/ha): 1; plant injury rating, Grso ([11]; 11.2100 kg/ha): 1; plant injury rating, Grft ([12]; 2.8025 kg/ha): 1
